According to ChEMBL document CHEMBL3132773, “Synthesis and biological evaluation of novel 2,3-dihydro-1H-1,5-benzodiazepin-2-ones; potential imaging agents of the metabotropic glutamate 2 receptor” (Medchemcomm, 2013):

Experiments:
[1] = molecular target: Metabotropic glutamate receptor 2 (Homo sapiens, UniProt Q14416); assay: Non-competitive antagonist activity at human recombinant mGluR2 expressed in Chem-1 cell membrane assessed as inhibition of L-glutamate-induced [35S]GTPgammaS binding after 30 mins by liquid scintillation counting analysis; assay type: functional, cell membranes
[2] = molecular target: Albumin (Homo sapiens, UniProt P02768); assay: Protein binding in human serum albumin by chromatography; assay type: ADME; settings: read-out: PPB (converted)
[3] = Lipophilicity, log P of the compound by HPLC analysis; assay type: physicochemical

Sequence of Albumin (P02768 whole entry): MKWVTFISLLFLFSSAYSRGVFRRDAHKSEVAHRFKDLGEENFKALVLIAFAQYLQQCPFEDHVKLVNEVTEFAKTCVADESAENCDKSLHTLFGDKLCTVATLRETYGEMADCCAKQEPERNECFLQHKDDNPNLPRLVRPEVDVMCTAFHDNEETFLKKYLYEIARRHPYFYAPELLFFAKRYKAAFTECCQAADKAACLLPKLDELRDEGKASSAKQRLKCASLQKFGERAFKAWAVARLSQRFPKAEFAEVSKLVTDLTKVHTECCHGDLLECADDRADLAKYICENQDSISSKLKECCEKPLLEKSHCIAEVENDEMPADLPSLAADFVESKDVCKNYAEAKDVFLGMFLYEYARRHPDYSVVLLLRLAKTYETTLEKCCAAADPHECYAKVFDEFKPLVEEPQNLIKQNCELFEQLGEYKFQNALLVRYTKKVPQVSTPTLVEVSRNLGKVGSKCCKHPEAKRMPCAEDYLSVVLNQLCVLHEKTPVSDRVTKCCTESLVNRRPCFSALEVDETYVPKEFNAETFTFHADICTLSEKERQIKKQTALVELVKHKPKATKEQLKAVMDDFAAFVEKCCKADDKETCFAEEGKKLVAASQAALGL
Sequence of Metabotropic glutamate receptor 2 (Q14416 whole entry): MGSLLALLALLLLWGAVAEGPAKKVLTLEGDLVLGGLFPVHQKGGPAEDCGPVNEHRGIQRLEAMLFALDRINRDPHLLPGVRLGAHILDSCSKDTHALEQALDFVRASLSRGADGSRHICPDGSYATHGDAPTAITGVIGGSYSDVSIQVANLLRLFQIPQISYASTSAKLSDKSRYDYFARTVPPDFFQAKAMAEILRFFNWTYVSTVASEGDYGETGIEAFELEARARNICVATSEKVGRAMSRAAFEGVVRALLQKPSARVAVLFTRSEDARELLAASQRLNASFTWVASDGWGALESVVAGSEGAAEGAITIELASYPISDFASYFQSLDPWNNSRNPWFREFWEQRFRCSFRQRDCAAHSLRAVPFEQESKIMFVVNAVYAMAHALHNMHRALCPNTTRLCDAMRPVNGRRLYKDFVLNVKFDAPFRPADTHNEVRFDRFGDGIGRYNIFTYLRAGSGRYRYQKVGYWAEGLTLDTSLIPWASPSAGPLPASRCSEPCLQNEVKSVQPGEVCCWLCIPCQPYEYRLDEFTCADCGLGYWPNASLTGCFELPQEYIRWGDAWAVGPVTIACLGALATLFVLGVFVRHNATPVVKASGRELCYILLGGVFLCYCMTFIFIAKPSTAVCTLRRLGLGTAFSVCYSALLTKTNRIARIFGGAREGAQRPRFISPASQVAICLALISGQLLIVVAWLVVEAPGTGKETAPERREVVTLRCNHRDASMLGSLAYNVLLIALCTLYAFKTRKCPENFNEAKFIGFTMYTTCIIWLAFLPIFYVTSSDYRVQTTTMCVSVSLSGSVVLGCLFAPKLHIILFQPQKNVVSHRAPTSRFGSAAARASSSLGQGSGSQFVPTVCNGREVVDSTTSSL

SMILES	IC50 [1] [nM]	fraction unbound [2]	logP [3]
Clc1cccc(Cl)c1/C(=C/n1cncn1)OC1CCCCCC1	533		
O=C1CC(c2cccc(-n3ccnc3)c2)=Nc2ccc(I)cc2N1	89	0.0508	4.6
O=C1CC(c2cccc(-n3ccnc3)c2)=Nc2ccc(-c3ccc(I)cc3)cc2N1	133	0.0133	5.77
COc1cc2c(cc1C(F)(F)F)NC(=O)CC(c1cccc(-n3ccnc3)c1)=N2	91	0.0759	4.67
COc1cc2c(cc1-c1ccc(I)cc1)NC(=O)CC(c1cccc(-n3ccnc3)c1)=N2	89	0.0168	5.72

More lines, in order of falling IC50 [1], values ahead:

IC50 [1] [nM]	fraction unbound [2]	logP [3]	SMILES
132	0.0154	5.73	O=C1CC(c2cccc(-n3ccnc3)c2)=Nc2ccc(-c3cccc(I)c3)cc2N1
100	0.0488	5.06	O=C1CC(c2cccc(-n3ccnc3)c2)=Nc2cc(OCCCF)c(C(F)(F)F)cc2N1
